Experiments:
[1] = tested on: special operations veterans; experiment: Hopkins Verbal Learning Test-Revised (HVLT-R), Example 1 study; assay type: in vivo, human
[2] = tested on: special operations veterans; experiment: MADRS depression rating scale, Example 1 study; assay type: in vivo, human; conditions: for MADRS score, mean: p(FDR) <0.001
Protocol: (§1) With subjects in the fasting state, an intravenous infusion of 1 gram of magnesium sulfate was administered 1-2 hours prior to treatment. […] Medical staff (MD, RN, or EMT) were onsite at a ratio of at least 1 staff per 2 patients throughout treatment for monitoring and management, but no specific coaching or psychological support was provided during treatment.
(§2) Post treatment, each subject was assessed four days after treatment, one month after treatment, and, if willing, one year after treatment. The post-treatment assessments conducted at four days and at one month after treatment included neuropsychological testing, measures of PTSD, depression, anxiety, mystical experiences, functional imaging and EEG. Post-treatment assessments conducted at one year after treatment included PTSD, depression, and anxiety measures.
(§3) Clinician administered scales included CAPS-5 (Clinician-administered PTSD Scale for DSM-5), which is a gold standard assessment of PTSD symptom severity; MADRS (Montgomery-Asberg Depression Rating Scale), a measure for depressive symptom severity; and Hamilton-Anxiety Rating Scale (HAM-A) (Shear, M. K. et al., Depress. Anxiety 13, 166-178 (2001)) a measure for anxiety symptom severity; SCID-5 (Structured Clinical Interview for DSM-5) Overview for a historical and environmental context of symptom presentation; MINI DSM-5 (Mini International Neuropsychiatric Interview from DSM-5) for a structured psychodiagnostics assessment; BAT-L (Boston Assessment of TBI—Lifetime) for a lifetime history of TBI and blast exposure; and Ohio State University TBI Identification Method (Short Form) for a lifetime history of TBI. MADRS testing provides an indication of depressive symptoms, CAPS-5 provides an indication of PTSD and SIGH-A provides an indication of anxiety. Collectively these overlap to provide indication of mood, concentration, sleep and tension.
The MADRS is a clinician—administered 10-item scale assessing the severity of depression symptoms. Items are rated on a scale of 0 (no abnormality) to 6 (severe) (Montgomery, S. A. et al., Br. J. Psychiatry J. Ment. Sci. 134, 382-389 (1979)). A total score of 0-6 indicates no depression, 7-19 mild depression, 20-34 moderate depression, 35-59 severe depression, […] (Miller, M. J., J. Affect. Disord. 77, 255-260 (2003)).

[3] = tested on: N-methyl-D-aspartate, kappa and mu opioid, sigma-1 and -2, nicotinic acetylcholine, serotonin transporter, and dopamine transporter; conditions: cited from earlier work
[4] = tested on: special operations veterans; experiment: Hamilton Anxiety Rating Scale (HAM-A), Example 1 study; assay type: in vivo, human; conditions: for HAM-A score, mean: p(FDR) <0.001
Protocol: as §1, §2, §3
To assess anxiety symptoms, the Hamilton Anxiety Rating Scale was used. This scale includes 14-items assessing both psychic and physical symptoms of anxiety. Items are rated on a scale from 0 (no symptoms) to 4 (severe symptoms). Total score ranges were: no or minimal anxiety (≤7), mild (8-14), moderate (15-23), and severe anxiety symptoms (≥24) (Matza et al., Int. J Methods Psychiatr. Res. 19, 223-232 (2010)).

[5] = tested on: special operations veterans; experiment: Structural T1w MRI, FreeSurfer regional volume and cortical thickness; assay type: in vivo, human
Protocol: Structural imaging of the brain was also conducted on some of the subjects of Example 1. Gray matter constitutes about 40% of the brain and white matter constitutes about 60% of the brain. Gray matter contains most of the brain's neuronal cell nodes, it is fully developed once a person reaches their 20's and interprets sensor information from various parts of the body. White matter is made up of bundles which connect various gray matter areas, it develops throughout the 20's and peaks in middle age, Typical metrics analyzed in anatomical (T1-weighted, “T1w”) imaging include volume and/or shape of nuclei (e.g. caudate), volume and/or shape of ventricles of the brain, and cortical thickness (mm). These metrics can be used to study normal and abnormal neuroanatomy and are primarily used to quantify gray matter. A tool called FreeSurfer was applied to images for a T1w structural analysis (volume, cortical thickness) to adjust for bias, remove non-brain matter, segments by tissue, parcels the brain into standardized regions, and provides measurements of those regions. FreeSurfer measurements of whole brain volume, volume by tissue (gray, white, CSF), estimated intracranial volume (ICV), subcortical gray matter volume, cortical volume by region were done. […] In particular, analysis was done to determine if there was any loss in gray matter volume or cortical thickness, whether there was a loss in white matter volume or an increase in presence of white matter hypotensities.
The fMRI images were also inspected to determine the difference in volume in regional areas of the brain from baseline to one month after treatment. FIG. 8A is a bar graph showing the effect size of a change in volume in 47 brain regions indicated along the x-axis. […] The fMRI images were also inspected for whole brain thickness at baseline and one month after treatment. […] FIG. 8B is a bar graph showing the effect size of a cortical thickness change for the brain regions indicated along the x-axis, from baseline to one month after treatment. […] The right and left parahippocampal gyrus are involved in visuospatial processing, including scene perception, navigation, and emotional contextualization. The left orbitofrontal gyrus is involved in impulse control and reward valuation. The left insular cortex is associated with both the affective-perceptual and cognitive-evaluative forms of empathy, as well as awareness of hunger, pain and fatigue. The left entorhinal cortex is a widespread network hub for memory, navigation, and perception of time.

SMILES: CCC1CC2CC3c4[nH]c5ccc(OC)cc5c4CCN(C2)C13 (stereo not shown) [ibogaine, Ibogaine]
- Verbal Memory (HVLT-R), mean ± SD ([1]; 1-wk post, baseline 47.4 ± 10.1, p(FDR) 0.583): 49.0 ± 9.2 T score
- Verbal Memory (HVLT-R), D ([1]; baseline vs 1-month post): 0.47
- Verbal Memory (HVLT-R), D ([1]; baseline vs 1-wk post): 0.17
- Verbal memory improvement ([1]; one-month follow-up): significant improvement
- MADRS score, mean ([2]; 1-mo. post, SD 5.9, baseline 25.2 ± 8.7, N 28, only participants with mild TBI): 3.6
- MADRS score, mean ([2]; 1-mo. post, SD 7.7, baseline 31.3 ± 6.5, N 15, only participants meeting diagnostic criteria per MINI at baseline): 6.4
- MADRS % Reduction vs Baseline, mean ([2]; 1-mo. post, SD 17%, only participants with mild TBI): 87% ±
- MADRS % Reduction vs Baseline, mean ([2]; 1-mo. post, SD 21%, only participants meeting diagnostic criteria per MINI): 81% ±
- MADRS score, mean ([2]; 1-wk post, SD 3.6, baseline 31.3 ± 6.5, N 15, only participants meeting diagnostic criteria per MINI at baseline): 3.6
- MADRS score, mean ([2]; 1-wk. post, SD 3.2, baseline 25.2 ± 8.7, N 28, only participants with mild TBI): 2.7
- MADRS % Reduction vs Baseline, mean ([2]; 1-wk. post, SD 11%, only participants meeting diagnostic criteria per MINI): 89% ±
- MADRS % Reduction vs Baseline, mean ([2]; 1-wk. post, SD 24%, only participants with mild TBI): 87% ±
- MADRS, D ([2]; Baseline vs 1-mo. post, only participants with mild TBI): 2.70
- Affinity for neurotransmitter receptors [3]: moderate-to-weak affinity
- HAM-A score, mean ([4]; 1-mo. post, SD 4.6, baseline 20.7 ± 8.6, N 28, only participants with mild TBI): 3.7
- HAM-A score, mean ([4]; 1-mo. post, SD 6.3, baseline 23.8 ± 7.6, N 14, only participants meeting diagnostic criteria per MINI at baseline): 5.1
- HAM-A % Reduction vs Baseline, mean ([4]; 1-mo. post, SD 21%, only participants with mild TBI): 82% ±
- HAM-A % Reduction vs Baseline, mean ([4]; 1-mo. post, SD 23%, only participants meeting diagnostic criteria per MINI): 80% ±
- HAM-A score, mean ([4]; 1-wk post, SD 3.4, baseline 23.8 ± 7.6, N 14, only participants meeting diagnostic criteria per MINI at baseline): 4.2
- HAM-A score, mean ([4]; 1-wk. post, SD 3.3, baseline 20.7 ± 8.6, N 28, only participants with mild TBI): 3.3
- HAM-A % Reduction vs Baseline, mean ([4]; 1-wk. post, SD 14%, only participants meeting diagnostic criteria per MINI): 82% ±
- HAM-A % Reduction vs Baseline, mean ([4]; 1-wk. post, SD 19%, only participants with mild TBI): 82% ±
- White matter hypointensities (corrected for cerebral white matter), baseline vs. one month post treatment ([5]; 17 subjects, two-tailed p = 0.0789, left tailed p = 0.9606, right-tailed p = 0.0394): Two-tailed: no significant differences
- Subcortical Gray Matter volume, baseline vs. one month post treatment ([5]; 17 subjects, two-tailed p = 0.0949, left tailed p = 0.0475, alpha = 0.05): Two-tailed: no significant differences
- Total Gray Matter volume, baseline vs. one month post treatment ([5]; 17 subjects, two-tailed p = 0.4755, alpha = 0.05): Two-tailed: no significant differences
- Cortical Gray Matter volume, baseline vs. one month post treatment ([5]; 17 subjects, two-tailed p = 0.4847, alpha = 0.05): Two-tailed: no significant differences
- Regional brain volume increases, baseline to one month after treatment ([5]; 47 brain regions (FIG. 8A)): Increases in volume were observed in the cerebral white mater (left) and the left ventral DC
- Regional cortical thickness change ([5]; baseline to one month after treatment (FIG. 8B)): Increases in cortical thickness one-month after treatment was observed in left entorhinal cortex, left-lateral-orbitofrontal pole, parahippocampal gyrus (bilaterally), left insular cortex, and right-pars triangularis (inferior frontal gyrus)
- Left hemisphere mean thickness ([5]; one month after treatment vs baseline, two-tailed p=0.7146, alpha=0.05): no significant difference from baseline
- Right hemisphere mean thickness ([5]; one month after treatment vs baseline, two-tailed, alpha=0.05): no significant difference from baseline
- Inspection of brain volume and thickness for damage ([5]; treated subjects, one month after treatment): no apparent damage to the brain
